Assay results published in PMC12406199, “NanoDSF Screening for Anti-tubulin Agents Uncovers New Structure–Activity Insights” (Journal of Medicinal Chemistry, 2025).
Structures can show the parent of a compound that is named as a salt.

Target: tubulin (Ovis aries, UniProt D0VWY9+D0VWZ0)
Assay: nanoDSF screen, shift of polymerization temperature at about […]
Type: biochemical
Details: not given

Chain of tubulin (D0VWY9 entry or part of it): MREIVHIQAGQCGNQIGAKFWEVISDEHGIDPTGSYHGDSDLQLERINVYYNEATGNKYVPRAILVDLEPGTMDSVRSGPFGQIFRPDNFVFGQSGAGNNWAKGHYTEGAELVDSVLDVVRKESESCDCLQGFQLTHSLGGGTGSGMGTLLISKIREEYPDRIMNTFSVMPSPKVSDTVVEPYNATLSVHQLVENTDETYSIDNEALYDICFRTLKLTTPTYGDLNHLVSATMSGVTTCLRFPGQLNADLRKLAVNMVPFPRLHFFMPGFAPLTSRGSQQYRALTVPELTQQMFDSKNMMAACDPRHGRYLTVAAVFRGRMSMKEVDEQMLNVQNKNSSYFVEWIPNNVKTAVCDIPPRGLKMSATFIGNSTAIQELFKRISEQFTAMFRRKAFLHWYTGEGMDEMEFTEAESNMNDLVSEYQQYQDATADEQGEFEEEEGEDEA
Chain of tubulin (D0VWZ0 entry or part of it): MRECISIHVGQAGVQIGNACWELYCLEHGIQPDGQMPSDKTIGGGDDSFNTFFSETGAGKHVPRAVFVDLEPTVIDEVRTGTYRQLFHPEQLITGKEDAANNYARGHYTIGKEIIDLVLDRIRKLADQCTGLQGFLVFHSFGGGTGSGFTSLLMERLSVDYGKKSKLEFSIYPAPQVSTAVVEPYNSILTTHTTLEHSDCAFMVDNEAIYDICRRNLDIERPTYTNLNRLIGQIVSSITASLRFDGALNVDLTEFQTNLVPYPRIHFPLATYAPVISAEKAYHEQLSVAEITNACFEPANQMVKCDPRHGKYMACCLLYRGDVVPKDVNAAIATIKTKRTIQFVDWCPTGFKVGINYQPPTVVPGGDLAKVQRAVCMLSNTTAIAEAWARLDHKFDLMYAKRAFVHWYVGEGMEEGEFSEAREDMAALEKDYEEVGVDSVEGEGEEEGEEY

For `CCCSc1ccc2nc(NC(=O)OC)[nH]c2c1` [ABZ, Albendazole], which ΔTm at 50 µM is on record?
Its ΔTm at 50 µM is 6.4 °C.

`COC(=O)Nc1nc2ccc(C(=O)c3cccs3)cc2[nH]1` [NCZ, Nocodazole] was tested. Which ΔTm at 50 µM did it give?
The ΔTm at 50 µM was 6 °C.

Test system: U87MG
Assay: cells
Design: MTT viability assay on U87MG glioblastoma cells
Details: Homo sapiens, U-87 MG, 72 h
Procedure: Glioblastoma cell culture routines, viability, and proliferation assays were performed as previously described. U87MG cells were maintained in complete MEM media supplemented with 10% FBS and 2 mM L-glutamine (Invitrogen, Paris, France). For cytotoxicity assays, cells were counted and plated in 96-well flat-bottom plates (50,000 cells/mL, 5000 cells per well). After 24 h, the cells were treated with increasing concentrations of the MTAs (0, 1, 5, 10, and 20–40 μM) in a vehicle solution, containing 0.05% DMSO. All concentrations were done in triplicates. The surviving cells were quantified after 72 h by the tetrazolium bromide MTT-assay, according to the manufacturer’s instructions. After cell lysis, the optical density was measured at 600 nm using a Multiskan MS Thermo plate reader (LabSystems, Waltham, MA, USA).

How did the IC50 turn out when `O[C@@H](c1cc(C(F)(F)F)nc2c(C(F)(F)F)cccc12)[C@H]1CCCCN1` (racemic) [MFQ, Mefloquine] was run?
Its IC50 is 11.6 ± 1.2 µM.

`CCCSc1ccc2nc(NC(=O)OC)[nH]c2c1` [ABZ, Albendazole] was tested. Which IC50 did it give?
The IC50 was 0.3 µM.

How did the IC50 turn out when `C[C@@H](O[C@H]1OCCN(Cc2n[nH]c(=O)[nH]2)[C@H]1c1ccc(F)cc1)c1cc(C(F)(F)F)cc(C(F)(F)F)c1` [APT, Aprepitant] was run?
Its IC50 is 41.8 ± 31.8 µM.

With `C[C@H]1[C@H](OC(=O)CCC(=O)O)O[C@@H]2O[C@@]3(C)CC[C@H]4[C@H](C)CC[C@@H]1[C@@]24OO3` [ASN, Artesunate] as the compound, how does the IC50 read?
Its IC50 is 24 ± 4.1 µM.

Which IC50 does the source give for `CCc1oc2ccccc2c1C(=O)c1ccc(O)cc1` [BZ, Benzarone] here?
Its IC50 is 7.4 ± 0.7 µM.

For `CCc1oc2ccccc2c1C(=O)c1cc(Br)c(O)c(Br)c1` [BZB, Benzbromarone], which IC50 is on record?
The IC50 was 62.1 ± 2.8 µM.

How did the IC50 turn out when `Nc1cc(C(Cl)=C(Cl)Cl)c(S(N)(=O)=O)cc1S(N)(=O)=O` [CLS, Clorsulon] was run?
The IC50 was 66.8 ± 13.3 µM.

How did the IC50 turn out when `CN(C)CC/C=C1/c2ccccc2Sc2ccc(Cl)cc21` [CPX, Chlorprothixene] was run?
Its IC50 is 27.6 ± 2.2 µM.

For `CN(C)CCCN1c2ccccc2Sc2ccc(Cl)cc21` [CPZ, Chlorpromazine], which IC50 is on record?
Its IC50 is 4.5 ± 0.5 µM.

With `Oc1ccc(Cl)cc1Cc1cc(Cl)ccc1O` [DCP, Dichlorophen] as the compound, how does the IC50 read?
Its IC50 is 7.7 ± 1.2 µM.

How did the IC50 turn out when `N#CC(c1ccc(Cl)cc1)c1c(Cl)cc(-n2ncc(=O)[nH]c2=O)cc1Cl` (stereo not drawn) [DCZ, Diclazuril] was run?
Its IC50 is 48.9 ± 6 µM.

Which IC50 does the source give for `C/C=C(/C(=C/C)c1ccc(O)cc1)c1ccc(O)cc1` [DE, Dienestrol] here?
The IC50 was 23.6 ± 1 µM.

For `CCN(CC)C(=S)SSC(=S)N(CC)CC` [DFM, Disulfiram], which IC50 is on record?
The IC50 was 12 ± 1.6 µM.

For `O=c1c2ccccc2[se]n1-c1ccccc1` [EBS, Ebselen], which IC50 is on record?
The IC50 was 50.9 ± 32.7 µM.

For `C[C@]12CC[C@@H]3c4ccc(O)cc4CC[C@H]3[C@@H]1CC[C@@H]2O` [ED, 17β-estradiol], which IC50 is on record?
The IC50 was 30.7 ± 1.9 µM.

For `C#C[C@]1(O)CC[C@H]2[C@@H]3CCc4cc(O)ccc4[C@H]3CC[C@@]21C` [EES, Ethinylestradiol], which IC50 is on record?
The IC50 was 15.7 ± 0.8 µM.

`O=C1Nc2ccc(Cl)cc2[C@@](C#CC2CC2)(C(F)(F)F)O1` [EFV, Efavirenz] was tested. Which IC50 did it give?
The IC50 was 26.7 ± 2.6 µM.

How did the IC50 turn out when `COC(=O)Nc1nc2ccc(Sc3ccccc3)cc2[nH]1` [FBZ, Fenbendazole] was run?
Its IC50 is 0.2 µM.

How did the IC50 turn out when `CCOC(=O)C1=C(C)NC(C)=C(C(=O)OC)C1c1cccc(Cl)c1Cl` (stereo not drawn) [FDP, Felodipine] was run?
The IC50 was 13.7 ± 4 µM.

Which IC50 does the source give for `COC(=O)Nc1nc2cc(C(=O)c3ccc(F)cc3)ccc2[nH]1` [FLU, Flubendazol] here?
The IC50 was 0.6 µM.

`OCCN1CCN(CC/C=C2/c3ccccc3Sc3ccc(C(F)(F)F)cc32)CC1` [FPX, Flupentixol] was tested. Which IC50 did it give?
The IC50 was 9.8 ± 1.8 µM.

`COC1=CC(=O)C[C@@H](C)[C@]12Oc1c(Cl)c(OC)cc(OC)c1C2=O` [GSF, Griseofulvin] was tested. Which IC50 did it give?
The IC50 was 24.4 ± 3.7 µM.

`Oc1c(Cl)cc(Cl)c(Cl)c1Cc1c(O)c(Cl)cc(Cl)c1Cl` [HCP, Hexachlorophene] was tested. Which IC50 did it give?
Its IC50 is 5.1 ± 0.7 µM.

`CC[C@H](c1ccc(O)cc1)[C@@H](CC)c1ccc(O)cc1` [Hexestrol] was tested. Which IC50 did it give?
The IC50 was 20.2 ± 0.5 µM.

Which IC50 does the source give for `Clc1ccc(C(Cn2ccnc2)OCc2c(Cl)cccc2Cl)c(Cl)c1` (stereo not drawn) [ICZ, Isoconazole] here?
The IC50 was 33.1 ± 1.8 µM.

Which IC50 does the source give for `C[C@]12C=CC(=O)C=C1CC[C@@H]1[C@@H]2CC[C@@]2(C)[C@H]1CC[C@]2(C)O` [MAS, Methandrostenolone] here?
Its IC50 is 58.7 ± 5.1 µM.

For `CN(C)c1ccc2nc3ccc(=[N+](C)C)cc-3sc2c1` [MB, Methylene Blue], which IC50 is on record?
Its IC50 is 64.2 ± 9.9 µM.

How did the IC50 turn out when `Clc1ccc(C(c2ccccc2Cl)C(Cl)Cl)cc1` (stereo not drawn) [MTT, Mitotane] was run?
The IC50 was 23.7 ± 2.7 µM.

With `COC(=O)Nc1nc2ccc(C(=O)c3cccs3)cc2[nH]1` [NCZ, Nocodazole] as the compound, how does the IC50 read?
Its IC50 is under 0.1 µM.

With `N=C(N)Nc1ccc(C(=O)Oc2ccc3cc(C(=N)N)ccc3c2)cc1` [NFM, Nafamostat] as the compound, how does the IC50 read?
Its IC50 is 45.2 ± 6.1 µM.

Which IC50 does the source give for `COC(=O)C1=C(C)NC(C)=C(C(=O)OCC(C)C)C1c1ccccc1[N+](=O)[O-]` (stereo not drawn) [NSD, Nisoldipine] here?
The IC50 was 25.3 ± 1.6 µM.

How did the IC50 turn out when `CCOC(=O)C1=C(C)NC(C)=C(C(=O)OC)C1c1cccc([N+](=O)[O-])c1` (stereo not drawn) [NTD, Nitrendipine] was run?
Its IC50 is 36.8 ± 3.3 µM.

With `CNCCC=C1c2ccccc2CCc2ccccc21` [NTP, Nortriptyline] as the compound, how does the IC50 read?
Its IC50 is 20.5 ± 1.5 µM.

Which IC50 does the source give for `CCCOc1ccc2[nH]c(NC(=O)OC)nc2c1` [OBZ, Oxibendazol] here?
The IC50 was 1.8 ± 0.3 µM.

With `COC(=O)Nc1nc2cc([S+]([O-])c3ccccc3)ccc2[nH]1` (stereo not drawn) [OFZ, Oxfendazole] as the compound, how does the IC50 read?
The IC50 was 17 ± 1 µM.

With `COc1ccc(C(=O)c2ccccc2)c(O)c1` [OXY, Oxybenzone] as the compound, how does the IC50 read?
The IC50 was 14.4 ± 7 µM.

`CC(C)c1cccc(C(C)C)c1O` [PPF, Propofol] was tested. Which IC50 did it give?
The IC50 was 26.6 ± 2.5 µM.

`OCCN1CCN(CCCN2c3ccccc3Sc3ccc(Cl)cc32)CC1` [PPZ, Perphenazine] was tested. Which IC50 did it give?
Its IC50 is 9.8 ± 0.4 µM.

For `CNCCCC1c2ccccc2C=Cc2ccccc21` [PTP, Protriptyline hydrochloride], which IC50 is on record?
The IC50 was 17.7 ± 1.5 µM.

With `c1ccc2c(c1)Nc1ccccc1S2` [PTZ, Phenothiazine] as the compound, how does the IC50 read?
Its IC50 is 60.2 ± 9.2 µM.

How did the IC50 turn out when `O=C1NCCN1CCN1CCC(c2cn(-c3ccc(F)cc3)c3ccc(Cl)cc23)CC1` [STD, Sertindole] was run?
The IC50 was 6.7 ± 0.2 µM.

`Clc1ccc(C(Cn2ccnc2)OCc2csc3c(Cl)cccc23)c(Cl)c1` (stereo not drawn) [STZ, Sertaconazole nitrate] was tested. Which IC50 did it give?
The IC50 was 10.7 ± 1.3 µM.

`Cc1cc2nc3ccc(N(C)C)cc3[s+]c2cc1N` [TBO, Tolonium (Toluidine Blue O)] was tested. Which IC50 did it give?
The IC50 was 6.3 ± 0.3 µM.

`Oc1cc(Cl)ccc1Oc1ccc(Cl)cc1Cl` [TCL, Triclosan] was tested. Which IC50 did it give?
The IC50 was 11.6 ± 0.5 µM.

For `CSc1nc2cc(Cl)c(Oc3cccc(Cl)c3Cl)cc2[nH]1` [TCZ, Triclabendazole], which IC50 is on record?
Its IC50 is 15.1 ± 0.9 µM.

For `CCSc1ccc2c(c1)N(CCCN1CCN(C)CC1)c1ccccc1S2` [TEP, Thiethylperazine], which IC50 is on record?
Its IC50 is 8.4 ± 0.2 µM.

For `CN1CCN(CCCN2c3ccccc3Sc3ccc(C(F)(F)F)cc32)CC1` [TFP, Trifluoperazine], which IC50 is on record?
Its IC50 is 17.3 ± 3.2 µM.

With `CN(C)CCCN1c2ccccc2Sc2ccc(C(F)(F)F)cc21` [TFZ, Triflupromazine] as the compound, how does the IC50 read?
Its IC50 is 6.5 ± 0.6 µM.

How did the IC50 turn out when `Cc1c(C)c2c(c(C)c1O)CCC(C)(COc1ccc(CC3SC(=O)NC3=O)cc1)O2` (stereo not drawn) [TGZ, Troglitazone] was run?
The IC50 was 39.5 ± 1 µM.

`CN(C)CCOc1ccc(/C(=C(/CCCl)c2ccccc2)c2ccccc2)cc1` [TMF, Toremifene] was tested. Which IC50 did it give?
Its IC50 is 13.3 ± 1.9 µM.

`Clc1ccc(C(Cn2ccnc2)OCc2ccsc2Cl)c(Cl)c1` (stereo not drawn) [TOZ, Tioconazole] was tested. Which IC50 did it give?
Its IC50 is 18.3 ± 1.4 µM.

For `CNCCC=C1c2ccccc2C=Cc2ccccc21` [nCBP, Norcyclobenzaprine], which IC50 is on record?
The IC50 was 15.2 ± 0.8 µM.
